Laboratory results published in paper PMC5034290, “Predicted structure of a Minus-C OBP from Batocera horsfieldi (Hope) suggests an intermediate structure in evolution of OBPs” (Scientific Reports, 2016).

Assays:
CquiOBP1 = settings: cited from earlier work
BhorOBPm2 [1] = biological target: T1, BhorOBPm2 (Batocera horsfieldi, UniProt D4P5A8); assay: 1-NPN fluorescence competition binding; settings: pH 7.4, 30 mM Tris-HCl, room temperature, 2 μM protein, 2 μM 1-NPN
T1 construct: antennal cDNA, ORF 435 bp, 145 residues printed incl; 21-residue signal peptide; reverse primer encodes ETFIFF-stop
T1 sequence (D4P5A8 entry or part of it): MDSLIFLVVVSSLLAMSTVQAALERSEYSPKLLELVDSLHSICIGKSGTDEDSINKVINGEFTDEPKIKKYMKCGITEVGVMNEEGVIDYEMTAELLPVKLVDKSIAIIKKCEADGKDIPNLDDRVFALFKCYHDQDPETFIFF

BhorOBPm2 [2] = biological target: T1, BhorOBPm2; assay: direct 1-NPN fluorescence titration, Scatchard plot; format: binding; settings: 30 mM Tris-HCl, room temperature, 2 μM protein, 0-28 μM 1-NPN; fluorescent probe
BhorOBPm2 [3] = biological target: T1, BhorOBPm2; assay: 1-NPN fluorescence competition binding; settings: pH 7.4, 30 mM Tris-HCl, room temperature, 2 μM protein, 2 μM 1-NPN; reciprocal Ki, not Ki itself
BhorOBPm2 [4] = assay: Fluorescence competition-binding assay with 1-NPN probe, wild-type BhorOBPm2; design: species or system Batocera horsfieldi; settings: BhorOBPm2, discussion
Experimental: Fluorescence competition-binding assays were performed to determine the binding affinity of the BhorOBPm2 protein for various ligands using 1-NPN as a fluorescent probe. […] The fluorescence of 1-NPN was excited at 337 nm, and emission was recorded at between 350 nm and 600 nm using a RF-5301PC fluorescence spectrophotometer (Shimadzu, Kyoto, Japan), a 1-cm light path, and a quartz cuvette. The competitive binding of ligands was measured using 1-NPN (2 μM) as the fluorescent probe with a stoichiometry of 1:1 (protein:ligand), with the final concentration of each ligand added to the sample ranging from 0 μM to 20 μM. […] The binding data were obtained from three independent measurements. […] Binding affinities (Ki) of the OBPs for each ligand were determined based on the IC50 value (the initial fluorescence level of the competitor concentration reduced by half) using the equation: Ki = [IC50]/(1 + [1-NPN]/K1-NPN), where [1-NPN] is the free concentration of 1-NPN, and K1-NPN is the dissociation constant of the complex BhorOBPm2/1-NPN.

Row | Compound | 1/Ki*1000 (BhorOBPm2 [1]) | also measured
1 | CCCCCCCC=O [Octanal, octanal] |  | binding affinity (in words) (CquiOBP1): high binding affinities
2 | CCCCCCCCC=O [nonanal] | 50.40 1/Ki(uM)*1000 | binding affinity (in words) (CquiOBP1): high binding affinities
3 | c1ccc(Nc2cccc3ccccc23)cc1 [N-phenyl-1-naphthylamine] |  | Kd (BhorOBPm2 [2]): The dissociation constants (Kd) of the OBPs for 1-NPN were calculated from Scatchard plots
4 | Farnesene |  | 1/Ki(μM) × 1000 (BhorOBPm2 [3]): 1159.11 1000/μM (reciprocal of Ki in μM, times 1000)
5 | CCCCCCCCCC=O [decanal] | 102.21 1/Ki(uM)*1000 | binding affinity (in words) (CquiOBP1): high binding affinities
6 | CCCCCCCCCCCC(C)=O [2-tridecanone] | 353.05 1/Ki(uM)*1000 | 
7 | farnesene |  | binding affinity (in words) (BhorOBPm2 [4]): highest binding affinity
8 | CCCCCCCCCCCCCCCCCCCCCCCCC [pentacosane] | 1.89 1/Ki(uM)*1000 | binding affinity (in words) (BhorOBPm2 [4]): low binding affinities
9 | CCCCCCCCCCCCCCCCCCCCCCCCCCC [heptacosane] | 45.56 1/Ki(uM)*1000 | binding affinity (in words) (BhorOBPm2 [4]): low binding affinities
10 | CCCCCCCCCCCCC [tridecane] | 262.09 1/Ki(uM)*1000 | 
11 | CCCCCCCC=O [octanal] | 54.09 1/Ki(uM)*1000 | 
12 | CCCCCCCCCCCCCC [tetradecane] | 94.91 1/Ki(uM)*1000 | 
